This series is described as follows: Human HepG2 cell viability assay in 384 well format. It is filed as toxicity, cell-based. Also on record: dose 125 nL, time 70.5 hour; cytotoxicity at 70.5 h: concentration not given beside the values. The settings on record: HepG2 cells, read-out: Inhibition.
As to `CCC1(CC)Cc2ccccc2-c2nc(CN(C)C)nc(O)c21`, the cytotoxicity at 70.5 h was determined as 27.5%. For the molecule `COc1cccc(-c2nc(C)c(C(=O)NC(CO)CCSC)s2)c1` (configuration not stated), the cytotoxicity at 70.5 h was -25%.

Turning to `O=C(c1nc(-c2ccc3cc[nH]c3c2)no1)N1CCCC1`, the cytotoxicity at 70.5 h was -5.08%.

Regarding `CC[C@H](C)[C@H](NC(=O)Cc1csc(-c2cccc(Cl)c2)n1)C(=O)O`, the cytotoxicity at 70.5 h was -27.4%. Turning to `CC(C)N1CCn2c(nc3cc(C(N)=O)ccc32)C1`, the cytotoxicity at 70.5 h is -16.5%.

Consider `Cc1ccc2c(ccn2CCC(=O)N2CCC(C(N)=O)CC2)c1`, for which the cytotoxicity at 70.5 h was -21.3%.

Regarding `Cc1oc(-c2nc(C#N)c(N(C)C)o2)cc1S(=O)(=O)N1CCCC1`, the cytotoxicity at 70.5 h is -21.5%.

On to `CC1CCc2nc(O)c(C(=O)NCc3cccc(F)c3)cc2C1` (configuration not stated), for which the cytotoxicity at 70.5 h was -3.12%. In the case of `O=c1c2cnc(N3CCCCC3)nc2ccn1-c1ccccc1` it was 19%.

On to `O=c1[nH]c2c(c(=O)n1C1CCCCC1)CCC2NCCc1ccccc1` (configuration not stated), for which the cytotoxicity at 70.5 h is -17.4%.

Consider `CC(C)NC(=O)c1sccc1N(C)S(=O)(=O)c1ccc(Cl)cc1`, for which the cytotoxicity at 70.5 h is -8.11%. In the case of `Cc1cc2nc(SCC(=O)N3CCOCC3)n(CC(C)C)c(=O)c2[nH]1`, the cytotoxicity at 70.5 h is -7.46%. Consider `O=c1[nH]c2nc(N3CCSCC3)ncc2c(=O)n1-c1cccc(F)c1`, for which the cytotoxicity at 70.5 h was -0.348%. As to `CN1CCN(c2ncc3c(=O)n(-c4cccc(F)c4)c(=O)[nH]c3n2)CC1`, the cytotoxicity at 70.5 h is -12.6%. In the case of `Cc1noc(C2CCCCN2C(=O)NC2CCCC2)n1` (configuration not stated), the cytotoxicity at 70.5 h was -7.87%.

Consider `O=C(O)c1nnn(-c2ccc(OC(F)(F)F)cc2)c1-c1ccncc1`, for which the cytotoxicity at 70.5 h was -10.5%. In the case of `NC(=O)c1ccc2c(c1)nc1n2CCN(Cc2ccco2)C1`, the cytotoxicity at 70.5 h is -8.52%. Take `COc1cccc2c1ccn2CCC(=O)N1CCCC(C(=O)O)C1` (configuration not stated): the cytotoxicity at 70.5 h stood at 18.7%. `CC(C)N1CCc2c(C#N)c(NCc3ccco3)n3cnnc3c2C1`: the cytotoxicity at 70.5 h was -10.3%.

As to `CC(C)CNC(=O)c1c(-n2cnnn2)sc2c1CCC2`, the cytotoxicity at 70.5 h was -13.7%.

Regarding `CN(C(=O)Cn1nc(-c2cccs2)ccc1=O)C1CCS(=O)(=O)C1` (configuration not stated), the cytotoxicity at 70.5 h was determined as 11.2%. Consider `Cn1ncc2c1NC(=O)CC2c1ccc(Cl)cc1Cl` (configuration not stated), for which the cytotoxicity at 70.5 h is -15%.

With `Cc1c[nH]nc1C1CN(c2ncccn2)CCO1` (configuration not stated), the cytotoxicity at 70.5 h was -3.49%. On to `c1cc(C2CN(C3CCCCC3)C2)n[nH]1`, for which the cytotoxicity at 70.5 h stood at 17.8%.

With `Cc1cc(C(F)(F)F)nc(C2CCN(C(=O)CO)CC2)n1`, the cytotoxicity at 70.5 h is -6.47%. In the case of `Cc1nn(C)cc1-c1cc(C(=O)NCC(C)(C)c2ccc(F)cc2)n[nH]1`, the cytotoxicity at 70.5 h came out at 4.21%.

As to `Cc1nn(C)cc1-c1cc(C(=O)NCC(C)(C)c2ccccc2F)n[nH]1`, the cytotoxicity at 70.5 h is 17.9%. In the case of `Cc1nn(C)cc1-c1cc(C(=O)NCC(C)(C)c2cccc(F)c2)n[nH]1` it was 1.66%; in that of `Cc1cc(N(C)C)nc(C2(C)CCCN2CC(N)=O)n1` (configuration not stated), -2.11%. `CC1(c2[nH]ncc2C(N)=O)CCN(S(=O)(=O)c2ccccc2)CC1`: the cytotoxicity at 70.5 h was -2.57%.

In the case of `Cc1cc(O)nc(C2CCN(C(=O)CO)CC2)n1`, the cytotoxicity at 70.5 h was -3.54%. In the case of `CN(CC1(C)COC1)C(=O)c1cc(-c2ccn(C)n2)nc2ccccc12` it was 14.1%. In the case of `CC(C)(C)c1cc(C(=O)N2CCC(c3cnccn3)CC2)[nH]n1` it was -5.82%. In the case of `CCCn1cc(Cl)c(C(=O)N2C[C@@H](O)[C@H](Oc3ccccc3)C2)n1` it was 1.62%; in that of `CN(Cc1ccc(F)cc1)[C@@H]1CN(S(C)(=O)=O)C[C@H]1O`, -4.5%; in that of `CNc1cncc(C2CCCN2C(=O)CCn2ccnc2)n1` (configuration not stated), -6.98%. `CO[C@@H]1CCC[C@@H](N(C)C(=O)c2cn3cc(C)ccc3n2)[C@H]1O`: the cytotoxicity at 70.5 h is -8.11%. `C[C@@H]1CN(Cc2ccco2)CCN1C(=O)Cc1ccccc1F`: the cytotoxicity at 70.5 h was -10.6%.

Take `CCSCc1nc(O)c2nnn(C3CCN(Cc4ccco4)CC3)c2n1`: the cytotoxicity at 70.5 h came to 9.06%. In the case of `CCSCc1nc(O)c2nnn(C3CCN(Cc4ccoc4)CC3)c2n1`, the cytotoxicity at 70.5 h is -14.9%.

For `CS(=O)(=O)N1CCCC(n2nnn(-c3ccccc3)c2=O)C1` (configuration not stated), the cytotoxicity at 70.5 h was -8.01%.

On to `CCS(=O)(=O)N1CCCC(n2nnn(-c3ccccc3)c2=O)C1` (configuration not stated), for which the cytotoxicity at 70.5 h was -4.32%. Take `CC1(C(=O)N2CCSCC2)CNCCO1` (configuration not stated): the cytotoxicity at 70.5 h came out at 11.8%. On to `CNC(=O)CCc1cc(C)nc(C2CCN(c3ccccc3)CC2)c1`, for which the cytotoxicity at 70.5 h was -3.63%. In the case of `CNC(=O)CCc1cc(C2CCN(c3cnccn3)CC2)nc(C)n1`, the cytotoxicity at 70.5 h was -8.81%. With `CCCC(=O)NCCc1nc(N(C)C)ncc1-c1ccncc1`, the cytotoxicity at 70.5 h is -7.54%. For the molecule `COCC(=O)NCCc1nc(N(C)C)ncc1-c1ccncc1`, the cytotoxicity at 70.5 h is -6.86%. On to `CC(C)C(=O)N1CCC([C@@H]2C[C@H](C(F)F)n3ncnc3N2)CC1`, for which the cytotoxicity at 70.5 h was determined as 9.09%. As for `COCCNCc1cc2ccc(C)c(C)c2[nH]c1=O`, the cytotoxicity at 70.5 h is 4.37%. For `CSc1nnc(C2CCN(C(=O)N3CCCC3)CC2)n1C`, the cytotoxicity at 70.5 h is -9.43%. In the case of `CSc1nnc(C2CCN(C(=O)N3CCCC3)CC2)n1C(C)C`, the cytotoxicity at 70.5 h stood at 2.59%.

For the molecule `CS(=O)(=O)c1cc(Cl)cnc1C1CCCN(C(=O)C2CCOCC2)C1` (configuration not stated), the cytotoxicity at 70.5 h is -7.95%.

As for `COc1ccc(S(=O)(=O)N2CCC[C@@H]3CN(C(=O)C4CC4)C[C@@H]32)cc1F`, the cytotoxicity at 70.5 h worked out at 21.2%.

As for `CCc1cccc2cc(CNCCOC)c(=O)[nH]c12`, the cytotoxicity at 70.5 h was 21.7%.

`COc1ccc(S(=O)(=O)N2CCC[C@@H]3CN(C(=O)C4CC4)C[C@@H]32)cc1`: the cytotoxicity at 70.5 h came to 50%. As for `O=C(C1CCCC1)N1CCCC([C@@H]2C[C@H](C(F)F)n3ncnc3N2)C1` (some centres not stated), the cytotoxicity at 70.5 h was -6.92%. The same measure for `COc1ccccc1CC(=O)N1CCN(Cc2ccco2)C[C@@H]1C`: -2.18%; for `Cn1cc(CN2CCC(c3cc(COc4ccc(Cl)cc4)[nH]n3)C2)cn1` (configuration not stated): 0.81%; for `CO[C@H]1CN(Cc2nc3ccccc3n2C)CC[C@@]12CCCO2`: -4.2%. Regarding `CNC(=O)CCc1cc(C)nc(C2CCN(C3CCCCC3)CC2)c1`, the cytotoxicity at 70.5 h is -0.853%. In the case of `CNC(=O)CCc1cc(C)nc(C2CCN(C(=O)CN(C)C)CC2)c1` it was -3.32%. In the case of `O=C(c1cnc(O)c(Cl)c1)N1CCCC(c2nccs2)C1` (configuration not stated) it was 6.3%.

Take `Cc1ncccc1C(=O)N1CCC2(CCc3ccccc3C(=O)N2)C1` (configuration not stated): the cytotoxicity at 70.5 h amounted to 15.5%. `COc1ccc2c(c1)CC(C1CCOCC1)N(C(=O)c1ccn(C)n1)C2` (configuration not stated): the cytotoxicity at 70.5 h was 2.06%.

On to `CC(C)c1cc(C(=O)N2CCC3(CCc4ccccc4C(=O)N3)C2)no1` (configuration not stated), for which the cytotoxicity at 70.5 h came out at 8.79%. Consider `Cc1ccc(-c2nnc(C3CCCN3S(=O)(=O)c3cnn(C)c3C)o2)s1` (configuration not stated), for which the cytotoxicity at 70.5 h stood at 2.03%. Regarding `CN(C)C(=O)c1c[nH]nc1-c1ccc(CNC(=O)c2cnccn2)cc1`, the cytotoxicity at 70.5 h is -1.73%. As to `CC(C)c1nccn1CCC(=O)N1CCCCC1c1ccn[nH]1` (configuration not stated), the cytotoxicity at 70.5 h came out at 3.76%. In the case of `COc1ccc(CN(C)CC2(O)CCNC2)cc1` (configuration not stated), the cytotoxicity at 70.5 h came out at 0.252%. Turning to `O=C(CC1CCCC1)N1CCCC1c1ccc(CN2CCOCC2)cn1` (configuration not stated), the cytotoxicity at 70.5 h was -0.855%. Consider `CCc1nccn1CCC(=O)N1CCCC1c1cncc(NC)n1` (configuration not stated), for which the cytotoxicity at 70.5 h amounted to 5.43%. In the case of `Cc1ncsc1C(=O)NCc1ccc(-c2n[nH]cc2C(=O)N(C)C)cc1` it was -1.47%; in that of `Nc1nc(N)c2c(n1)OC1(CCN(C(=O)CC3CCCCN3)CC1)C2` (configuration not stated), -5.34%; in that of `Cc1cc(N2CCCC(c3nccnc3N(C)C)C2)ncn1` (configuration not stated), -2.83%. As to `Cc1nc(Nc2ncccn2)cc(C2CCCN2C2CCOCC2)n1` (configuration not stated), the cytotoxicity at 70.5 h was determined as 1.98%.

As to `CN(C)C(=O)C1CN(Cc2ccccc2)CCN(S(C)(=O)=O)C1` (configuration not stated), the cytotoxicity at 70.5 h was -6.37%. With `CNc1cc(C2CCCN2Cc2ccccc2C(=O)O)ccn1` (configuration not stated), the cytotoxicity at 70.5 h was -9.85%. The same measure for `CN(C)c1cncc(C2CCN(C(=O)CO)CC2)n1`: -22.6%.

`Cc1nc(Nc2nccs2)cc(C2CCCN2C2CCOCC2)n1` (configuration not stated): the cytotoxicity at 70.5 h is -8.39%. Take `Cc1ccc(S(=O)(=O)N2C[C@H]3C[C@H](NC(=O)c4ccnn4C)[C@H]3C2)cc1`: the cytotoxicity at 70.5 h turned out to be 46.1%. For the molecule `CN1CCCC(Cc2cncc(C(=O)NCC3CC3)c2)C1` (configuration not stated), the cytotoxicity at 70.5 h is -1.13%. `CC(=O)N1CCN(C)CC(COCc2ccccc2)C1` (configuration not stated): the cytotoxicity at 70.5 h is -3.41%.

For the molecule `CC(C)C1=NOC2(CCN(Cc3c[nH]c4ccccc34)CC2)C1`, the cytotoxicity at 70.5 h came out at 4.04%. As to `Cc1cccc(N2Cc3c(NC4CCCC4)ncnc3N(C)CC2=O)c1`, the cytotoxicity at 70.5 h is -4.33%. Take `Cc1ccc2nc(C3CCCN(Cc4ccccc4)C3)nc(O)c2c1` (configuration not stated): the cytotoxicity at 70.5 h turned out to be 0.432%.

For the molecule `O=C1Nc2ccccc2CNC12CCN(CC1CCNC1)CC2` (configuration not stated), the cytotoxicity at 70.5 h was -11%. As for `O=C1Nc2ccccc2CNC12CCN(CC1CCCC1)CC2`, the cytotoxicity at 70.5 h was -7.54%. In the case of `CC(=O)N1CCC2(CC1)CC(C(C)C)=NO2` it was -9.06%; in that of `c1cc(OCc2ccc3c(c2)OCCO3)ccc1CNC1CC1`, 22.8%; in that of `CCN(CC)C1CCN(C(=O)c2cc3cc(C)cc(C)c3nc2C)CC1`, -2.42%.

Consider `CN(C)[C@@H]1CN(Cc2ccc(O)cc2)C[C@H]1c1cn(C)c2ccccc12`, for which the cytotoxicity at 70.5 h was 3.53%. On to `COc1ccc(C(CNS(=O)(=O)c2cn(C)nc2C)N2CCCC2)cc1` (configuration not stated), for which the cytotoxicity at 70.5 h was 26.7%. With `CNCc1ccc([C@@H]2CN(C)C[C@H]2C(N)=O)cc1`, the cytotoxicity at 70.5 h was 19.9%. Consider `CNCc1ccc([C@@H]2CN(C(C)=O)C[C@H]2C(N)=O)cc1`, for which the cytotoxicity at 70.5 h is -7.99%. For the molecule `Cc1noc2nc(C3CCN(Cc4cccnc4)CC3)cc(C(F)F)c12`, the cytotoxicity at 70.5 h is -3.96%. The same measure for `Cc1nc[nH]c1CN(Cc1ccccc1)C1CC(C)(C)NC(C)(C)C1`: 4.53%; for `Cc1cccc(CN2CCC(c3csc4nccn34)CC2)n1`: 0.645%.

Values taken from ChEMBL document CHEMBL3507680, “University of Dundee, Gates Library screen for HepG2 cell viability”.
